BindingDB's records for patent US20230303547 (Mission Therapeutics, 2023)

Target: T1, Ubiquitin carboxyl-terminal hydrolase 30 (Homo sapiens, UniProt Q70CQ3)
T1 sequence (Q70CQ3 whole entry): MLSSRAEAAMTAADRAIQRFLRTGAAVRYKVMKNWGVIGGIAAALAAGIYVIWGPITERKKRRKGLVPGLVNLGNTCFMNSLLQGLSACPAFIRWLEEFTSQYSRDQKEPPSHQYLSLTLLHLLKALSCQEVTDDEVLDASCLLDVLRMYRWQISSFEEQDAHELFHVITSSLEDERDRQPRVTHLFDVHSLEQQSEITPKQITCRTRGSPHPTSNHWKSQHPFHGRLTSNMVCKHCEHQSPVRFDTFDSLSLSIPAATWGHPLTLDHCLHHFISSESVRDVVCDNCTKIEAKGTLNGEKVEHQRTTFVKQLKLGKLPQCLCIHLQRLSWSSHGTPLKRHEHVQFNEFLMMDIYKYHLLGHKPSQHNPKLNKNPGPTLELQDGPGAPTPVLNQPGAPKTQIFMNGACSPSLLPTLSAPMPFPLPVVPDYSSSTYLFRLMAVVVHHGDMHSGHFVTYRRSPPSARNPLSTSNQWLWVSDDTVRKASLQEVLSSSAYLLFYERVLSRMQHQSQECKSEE
Test: USP30 Biochemical IC50 Assay
Method: Dilution plates were prepared at 21 times the final concentration (2100 µM for a final concentration of 100 µM) in 50% DMSO in a 96-well polypropylene V-bottom plate (Greiner #651201). A typical 8-point dilution series would be 100, 30, 10, 3, 1, 0.3, 0.1, 0.03 µM final. Reactions were performed in duplicate in black 384 well plates (small volume, Greiner 784076) in a final reaction volume of 21 µl. Either 1 µl of 50% DMSO or diluted compound was added to the plate. USP30 (Boston Biochem #E582) was diluted in reaction buffer (40 mM Tris, pH 7.5, 0.005% Tween 20, 0.5 mg/ml BSA, 5 mM beta-mercaptoethanol) to achieve a final assay concentration of 4 nM, and 10 µl of diluted USP30 was added to the compound. Enzyme and compound were incubated for 30 min at room temp. Reactions were initiated by the addition of 50 nM of TAMRA labelled peptide linked to ubiquitin via an iso-peptide bond as fluorescence polarisation substrate. Reactions were read immediately after addition of substrate and following a 2-hour incubation at room temperature. Readings were performed on a Pherastar Plus (BMG Labtech). λ Excitation 540 nm; λ Emission 590 nm.

IC50 [nM] | SMILES
3 | C[C@@H]1C[C@@H](NC(=O)c2ncc(-c3cc(C#N)ccc3OC3CC3)o2)CN1C#N [US20230303547, Example 1]
3 | COC[C@@H]1C[C@@H](NC(=O)c2ncc(-c3cc(C#N)ccc3OC3CC3)o2)CN1C#N [US20230303547, Example 2]
1 | N#Cc1ccc(OC2CC2)c(-c2cnc(C(=O)N[C@@H]3C[C@@H](CF)N(C#N)C3)o2)c1 [US20230303547, Example 3]
2 | COc1ccc(C#N)cc1-c1cnc(C(=O)N[C@@H]2C[C@@H](C)N(C#N)C2)o1 [US20230303547, Example 4]
